Data: ChEMBL document CHEMBL1201862, “PubChem BioAssay data set” (2004)
The source made the active and inactive calls.

Columns and labels:
[1] = SAR analysis of small molecule activators of Apaf-1 using a LZ-Caspase-9/Caspase-3 Fluorescent Selectivity assay - Set 2.; type: functional; conditions: read-out: EC50_Mean
[2] = target: T1, Apoptotic protease-activating factor 1 (Homo sapiens, UniProt O14727); assay: SAR analysis of small molecule Activators of Apaf-1 in a Fluorescent assay - set 2.; type: functional; conditions: read-out: EC50_Mean
T1 sequence (O14727 whole entry): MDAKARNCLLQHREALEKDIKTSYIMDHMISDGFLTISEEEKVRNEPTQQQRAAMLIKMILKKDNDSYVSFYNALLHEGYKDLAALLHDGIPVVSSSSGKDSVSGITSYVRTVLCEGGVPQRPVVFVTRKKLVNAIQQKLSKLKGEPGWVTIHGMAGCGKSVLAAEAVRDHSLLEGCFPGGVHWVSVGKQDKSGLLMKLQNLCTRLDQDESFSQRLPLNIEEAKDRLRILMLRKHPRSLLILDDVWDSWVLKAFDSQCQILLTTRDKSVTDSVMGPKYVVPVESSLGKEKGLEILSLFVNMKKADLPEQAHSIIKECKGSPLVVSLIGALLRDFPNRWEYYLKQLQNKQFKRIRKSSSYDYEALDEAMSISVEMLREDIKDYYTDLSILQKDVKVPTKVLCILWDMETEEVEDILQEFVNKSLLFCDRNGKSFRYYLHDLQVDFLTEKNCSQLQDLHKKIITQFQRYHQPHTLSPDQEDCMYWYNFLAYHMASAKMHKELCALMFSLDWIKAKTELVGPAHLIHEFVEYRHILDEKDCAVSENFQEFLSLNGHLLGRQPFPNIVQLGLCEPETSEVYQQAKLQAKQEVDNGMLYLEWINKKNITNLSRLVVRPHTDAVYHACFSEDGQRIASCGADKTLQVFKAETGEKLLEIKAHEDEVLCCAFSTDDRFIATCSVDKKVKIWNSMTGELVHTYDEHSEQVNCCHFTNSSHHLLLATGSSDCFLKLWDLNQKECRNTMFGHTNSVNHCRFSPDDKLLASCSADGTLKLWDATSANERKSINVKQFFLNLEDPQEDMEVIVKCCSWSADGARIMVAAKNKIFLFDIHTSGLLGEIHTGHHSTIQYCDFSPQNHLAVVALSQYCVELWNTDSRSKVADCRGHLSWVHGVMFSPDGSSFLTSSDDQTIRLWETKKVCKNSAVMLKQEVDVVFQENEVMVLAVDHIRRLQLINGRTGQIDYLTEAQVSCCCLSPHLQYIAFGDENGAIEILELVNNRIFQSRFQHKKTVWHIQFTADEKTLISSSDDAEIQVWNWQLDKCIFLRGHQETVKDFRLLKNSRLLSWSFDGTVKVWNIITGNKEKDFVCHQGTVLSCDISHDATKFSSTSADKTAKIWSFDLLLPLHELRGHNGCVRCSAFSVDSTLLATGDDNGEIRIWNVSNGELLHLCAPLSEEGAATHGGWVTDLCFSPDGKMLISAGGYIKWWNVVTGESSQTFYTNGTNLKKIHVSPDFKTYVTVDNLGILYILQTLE

[3] = target: T2, Orexin/Hypocretin receptor type 1 (Homo sapiens, UniProt O43613); assay: (§1) Fluorescence-based cell-based high throughput dose response assay for antagonists of the orexin 1 receptor (OX1R; HCRTR1). [Related pubchem assays (depositor defined):AID434989, AID435008, AID463079, AID485270, AID492963, AID492964, AID492965, AID493232, AID504717, AID504718]; type: functional
T2 sequence (O43613 whole entry): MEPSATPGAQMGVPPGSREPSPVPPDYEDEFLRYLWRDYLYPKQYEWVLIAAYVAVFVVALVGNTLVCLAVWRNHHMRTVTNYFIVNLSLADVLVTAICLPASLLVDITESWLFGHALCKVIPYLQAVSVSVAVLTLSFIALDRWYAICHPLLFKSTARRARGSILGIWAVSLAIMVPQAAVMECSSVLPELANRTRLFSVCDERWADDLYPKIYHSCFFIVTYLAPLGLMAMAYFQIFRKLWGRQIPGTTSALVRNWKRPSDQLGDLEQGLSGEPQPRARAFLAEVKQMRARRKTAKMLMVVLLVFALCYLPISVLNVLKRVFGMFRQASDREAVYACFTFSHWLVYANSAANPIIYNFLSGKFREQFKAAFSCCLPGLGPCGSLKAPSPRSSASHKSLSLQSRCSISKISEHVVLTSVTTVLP

Orexin receptor type 2 [4] = target: T3, Orexin receptor type 2 (Homo sapiens, UniProt O43614); assay: Counterscreen assay for antagonists of the orexin 1 receptor (OX1R; HCRTR1): Homogeneous Time Resolved Fluorescence (HTRF)-based cell-based dose response assay for antagonists of the orexin 2 receptor (OX2R; HCRTR2), run by assay provider.; type: functional
T3 sequence (O43614 whole entry): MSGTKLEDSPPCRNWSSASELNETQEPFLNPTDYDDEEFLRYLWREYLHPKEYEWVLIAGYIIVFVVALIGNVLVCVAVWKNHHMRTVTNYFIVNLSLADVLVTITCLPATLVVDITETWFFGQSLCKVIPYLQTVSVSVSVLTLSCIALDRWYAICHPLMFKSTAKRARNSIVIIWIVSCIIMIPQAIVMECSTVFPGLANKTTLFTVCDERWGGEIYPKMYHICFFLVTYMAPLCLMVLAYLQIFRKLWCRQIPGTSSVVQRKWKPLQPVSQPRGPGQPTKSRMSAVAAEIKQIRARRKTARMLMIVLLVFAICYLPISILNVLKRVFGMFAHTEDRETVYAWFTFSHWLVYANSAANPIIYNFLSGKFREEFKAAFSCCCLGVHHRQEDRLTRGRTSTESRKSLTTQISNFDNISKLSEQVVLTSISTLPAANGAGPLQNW

H9c2 = assay: cells; type: functional, cell-based; conditions: Rattus norvegicus, H9c2, Myocardium;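 note: confirmatory concentration-response retest of ultra-high-throughput screening hits for modulation of myocardial damage; cell death induced by hydrogen peroxide oxidative stress; compound pretreatment for 60 min then peroxide exposure for 2 h; potency is for protecting the cells against peroxide damage rather than for killing them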
[5] = HEp-2 cell cytotoxicity, dose response, cytotoxicity control for RSV inhibitor project, HTS (AID 2410); type: functional; conditions: human respiratory syncytial virus
[6] = target: T2, Orexin/Hypocretin receptor type 1; assay: as §1, with “Homogeneous Time Resolved Fluorescence (HTRF)-based” for “Fluorescence-based”; type: functional
Orexin receptor type 2 [7] = target: T3, Orexin receptor type 2; assay: Counterscreen assay for antagonists of the orexin 1 receptor (OX1R; HCRTR1): Fluorescence-based cell-based dose response assay for antagonists of the orexin 2 receptor (OX2R; HCRTR2), run by assay provider.; type: functional
[8] = (§2) Counterscreen for antagonists of the orexin 1 receptor (OX1R; HCRTR1): Fluorescence-based cell-based high throughput dose response assay to identify antagonists of the parental CHO cell line. [Related pubchem assays (depositor defined):AID434989, AID435008, AID463079, AID485270, AID492963, AID492964, AID492965, AID493232, AID504699, AID504701]; type: functional
CHO-K1 = assay: as §2, with “Homogeneous time resolved fluorescence (HTRF)-based” for “Fluorescence-based”, “cell-based” for “cell-based high throughput”, “CHO-K1” for “CHO”; type: functional; conditions: Cricetulus griseus;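 note: potency for inhibition of ATP-stimulated IP1 production as antagonists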
Candida albicans [9] = assay: growth inhibition of resistant C. albicans, dose response, CaCi-8, fluconazole, Alamar Blue, dry powder (AID 488807); type: functional, organism-based
NIH3T3 = assay: cytotoxicity in NIH-3T3 fibroblasts, dose response, cytotoxicity control for antifungal drug resistance project, cell-based, Alamar Blue, fluconazole, dry powder (AID 488809); type: functional; conditions: Mus musculus
Candida albicans [10] = assay: single-agent growth inhibition of C. albicans, dose response, counter-screen for antifungal drug resistance project, C. albicans CaCi-2, dry powder (AID 488802); type: functional, organism-based
[11] = target: Glycogen synthase kinase-3 alpha (Homo sapiens, UniProt P49840); assay: Inhibition of Human GSK-3 alpha Activity Measured in Biochemical System Using Microfluidics - 2063-06_Inhibitor_Dose_DryPowder_Activity_Set2. [Related pubchem assays (depositor defined):AID2709]
Glycogen synthase kinase-3 alpha, sequence (P49840 whole entry): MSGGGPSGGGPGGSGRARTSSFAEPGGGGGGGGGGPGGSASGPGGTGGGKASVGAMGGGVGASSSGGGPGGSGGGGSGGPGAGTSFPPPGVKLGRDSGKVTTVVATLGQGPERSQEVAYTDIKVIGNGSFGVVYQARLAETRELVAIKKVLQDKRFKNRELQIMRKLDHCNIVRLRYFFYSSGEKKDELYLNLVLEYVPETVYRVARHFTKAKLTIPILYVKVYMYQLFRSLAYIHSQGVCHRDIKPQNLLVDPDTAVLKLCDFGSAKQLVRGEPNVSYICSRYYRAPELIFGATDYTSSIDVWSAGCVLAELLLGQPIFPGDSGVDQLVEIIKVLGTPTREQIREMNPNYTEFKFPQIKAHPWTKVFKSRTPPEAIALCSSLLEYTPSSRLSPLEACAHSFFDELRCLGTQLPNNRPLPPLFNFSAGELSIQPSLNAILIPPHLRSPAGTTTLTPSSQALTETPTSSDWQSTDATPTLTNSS

[12] = target: Cyclin-dependent kinase 5/CDK5 activator 1 (Homo sapiens, UniProt Q00535); assay: CDK5-p25 kinase inhibitors, specificity check, dose response, selectivity assay for GSK-3 alpha inhibitor project, biochemical, microfluidic mobility shift, dry powder (AID 588430)
Cyclin-dependent kinase 5/CDK5 activator 1, sequence (Q00535 whole entry): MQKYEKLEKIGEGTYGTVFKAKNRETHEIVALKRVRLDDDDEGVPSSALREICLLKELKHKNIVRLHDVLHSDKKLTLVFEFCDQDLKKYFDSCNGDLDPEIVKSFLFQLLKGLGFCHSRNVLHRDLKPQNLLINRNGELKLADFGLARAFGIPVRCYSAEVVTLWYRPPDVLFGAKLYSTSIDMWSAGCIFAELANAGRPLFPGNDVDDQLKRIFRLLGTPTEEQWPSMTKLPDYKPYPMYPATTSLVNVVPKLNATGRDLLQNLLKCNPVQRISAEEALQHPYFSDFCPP
Cyclin-dependent kinase 5/CDK5 activator 1, sequence (Q15078 whole entry, further chain): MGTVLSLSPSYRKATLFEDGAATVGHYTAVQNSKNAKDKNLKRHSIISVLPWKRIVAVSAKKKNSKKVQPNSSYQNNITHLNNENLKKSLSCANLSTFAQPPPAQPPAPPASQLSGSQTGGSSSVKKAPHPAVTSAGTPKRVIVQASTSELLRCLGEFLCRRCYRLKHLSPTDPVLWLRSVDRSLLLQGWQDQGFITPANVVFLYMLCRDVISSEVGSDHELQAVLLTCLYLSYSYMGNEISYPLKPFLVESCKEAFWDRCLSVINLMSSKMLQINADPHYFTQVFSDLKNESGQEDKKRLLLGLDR

[13] = target: Glycogen synthase kinase-3 beta (Homo sapiens, UniProt P49841); assay: Inhibition of Human GSK-3 beta Activity Measured in Biochemical System Using Microfluidics - 2063-05_Inhibitor_Dose_DryPowder_Activity_Set2. [Related pubchem assays (depositor defined):AID2709]
Glycogen synthase kinase-3 beta, sequence (P49841 whole entry): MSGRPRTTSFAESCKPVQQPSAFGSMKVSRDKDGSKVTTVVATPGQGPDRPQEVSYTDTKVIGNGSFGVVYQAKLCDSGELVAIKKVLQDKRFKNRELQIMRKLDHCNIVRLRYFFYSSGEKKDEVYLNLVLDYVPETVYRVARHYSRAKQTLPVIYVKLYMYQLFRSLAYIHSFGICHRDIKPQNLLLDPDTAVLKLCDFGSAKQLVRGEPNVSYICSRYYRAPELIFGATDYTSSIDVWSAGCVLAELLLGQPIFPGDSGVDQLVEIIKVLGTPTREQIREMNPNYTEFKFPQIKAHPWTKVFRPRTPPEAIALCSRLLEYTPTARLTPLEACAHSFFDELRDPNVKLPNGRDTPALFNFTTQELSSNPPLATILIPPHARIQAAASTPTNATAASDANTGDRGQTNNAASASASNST

[14] = target: Melanin-concentrating hormone receptor 1 (Homo sapiens, UniProt Q99705); assay: Late-stage fluorescence-based counterscreen for antagonists of the G-protein coupled receptor 7 (GPR7): cell-based dose response assay to identify antagonists of the melanin-concentrating hormone receptor 1 (MCHR1) Set 5.; type: functional
Melanin-concentrating hormone receptor 1, sequence (Q99705 whole entry): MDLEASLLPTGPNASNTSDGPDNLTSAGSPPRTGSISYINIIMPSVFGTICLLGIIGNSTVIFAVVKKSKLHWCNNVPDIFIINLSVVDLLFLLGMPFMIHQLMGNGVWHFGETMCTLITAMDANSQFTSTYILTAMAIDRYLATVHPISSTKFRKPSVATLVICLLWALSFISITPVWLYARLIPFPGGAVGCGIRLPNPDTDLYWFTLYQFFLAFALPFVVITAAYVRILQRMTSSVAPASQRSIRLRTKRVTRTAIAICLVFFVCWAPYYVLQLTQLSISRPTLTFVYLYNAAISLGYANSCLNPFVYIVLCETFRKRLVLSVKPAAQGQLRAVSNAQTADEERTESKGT

[15] = target: T4, Neuropeptides B/W receptor type 1 (Homo sapiens, UniProt P48145); assay: GPR7 antagonist potency, late-stage follow-up, cell-based, fluorescence, dose response, set 5 (AID 588566); type: functional
T4 sequence (P48145 whole entry): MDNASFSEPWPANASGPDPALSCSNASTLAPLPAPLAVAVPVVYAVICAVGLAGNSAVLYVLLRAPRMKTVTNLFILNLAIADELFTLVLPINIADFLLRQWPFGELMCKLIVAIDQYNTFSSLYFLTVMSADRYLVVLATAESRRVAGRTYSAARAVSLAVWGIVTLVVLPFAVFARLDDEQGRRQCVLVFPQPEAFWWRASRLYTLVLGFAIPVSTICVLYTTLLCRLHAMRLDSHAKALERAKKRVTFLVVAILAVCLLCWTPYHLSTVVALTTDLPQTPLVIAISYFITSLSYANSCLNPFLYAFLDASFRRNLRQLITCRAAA

[16] = Vero cell cytotoxicity, dose response, cytotoxicity control for M. tuberculosis growth inhibitor project, Vero cells, purified and synthesized compounds, set 5 (AID 504909); type: functional; conditions: Mycobacterium tuberculosis
[17] = Vero cell cytotoxicity, cytotoxicity control for M. tuberculosis inhibitor project, purified and synthesized samples, set 3 (AID 504684); type: functional
[18] = THP-1 cell cytotoxicity, cytotoxicity control, set 4 (AID 504911); type: functional; conditions: Mycobacterium tuberculosis
[19] = THP-1 cell cytotoxicity, dose response, cytotoxicity control, set 3 (AID 504852); type: functional; conditions: Mycobacterium tuberculosis
[20] = A Cell Based Secondary Assay to Explore Cytotoxicity in THP-1 Cells of Compounds that Modulate Mycobacterium tuberculosis in Media Containing Glycerol versus Media without Glycerol (2).; type: functional
[21] = Vero cell cytotoxicity, dose response, cytotoxicity control for M. tuberculosis growth inhibitor project, Vero cells, purified and synthesized compounds, set 4 (AID 504854); type: functional; conditions: Mycobacterium tuberculosis
[22] = target: Cyclin-dependent kinase 8 (Homo sapiens, UniProt P49336); assay: Navigating the Kinome. Panel member name: CDK8; type: functional
Cyclin-dependent kinase 8, sequence (P49336 whole entry): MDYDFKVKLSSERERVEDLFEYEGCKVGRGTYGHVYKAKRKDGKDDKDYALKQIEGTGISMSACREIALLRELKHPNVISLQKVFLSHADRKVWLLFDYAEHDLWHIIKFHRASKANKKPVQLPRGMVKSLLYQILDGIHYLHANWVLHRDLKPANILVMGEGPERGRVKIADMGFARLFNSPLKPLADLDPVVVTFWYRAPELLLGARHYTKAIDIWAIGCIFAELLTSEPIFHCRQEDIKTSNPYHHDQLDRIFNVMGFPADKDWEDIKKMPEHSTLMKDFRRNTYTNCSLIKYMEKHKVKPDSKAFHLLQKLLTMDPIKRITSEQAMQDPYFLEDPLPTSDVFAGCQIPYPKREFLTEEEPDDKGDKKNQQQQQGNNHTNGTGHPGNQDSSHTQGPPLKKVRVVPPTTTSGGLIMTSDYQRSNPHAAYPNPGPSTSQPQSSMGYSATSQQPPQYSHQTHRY

[23] = target: Cyclin-dependent kinase 9 (Homo sapiens, UniProt P50750); type: functional;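 note: value from the CDK9 entry of a kinome-spanning kinase panel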
Cyclin-dependent kinase 9, sequence (P50750 whole entry): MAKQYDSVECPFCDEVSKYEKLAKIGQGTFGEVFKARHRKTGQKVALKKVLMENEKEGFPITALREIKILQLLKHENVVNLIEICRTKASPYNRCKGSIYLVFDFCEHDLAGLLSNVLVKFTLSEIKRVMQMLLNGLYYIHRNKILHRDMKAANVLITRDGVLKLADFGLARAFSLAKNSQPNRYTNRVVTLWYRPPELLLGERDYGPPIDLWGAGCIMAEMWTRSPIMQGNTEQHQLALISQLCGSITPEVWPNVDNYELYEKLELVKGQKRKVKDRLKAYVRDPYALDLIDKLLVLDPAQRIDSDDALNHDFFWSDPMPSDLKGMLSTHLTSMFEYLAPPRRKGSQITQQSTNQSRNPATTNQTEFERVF

Cytochrome P450 2C9 = Cytochrome P450 2C9 (Homo sapiens, UniProt P11712)
Cytochrome P450 2C9, sequence (P11712 whole entry): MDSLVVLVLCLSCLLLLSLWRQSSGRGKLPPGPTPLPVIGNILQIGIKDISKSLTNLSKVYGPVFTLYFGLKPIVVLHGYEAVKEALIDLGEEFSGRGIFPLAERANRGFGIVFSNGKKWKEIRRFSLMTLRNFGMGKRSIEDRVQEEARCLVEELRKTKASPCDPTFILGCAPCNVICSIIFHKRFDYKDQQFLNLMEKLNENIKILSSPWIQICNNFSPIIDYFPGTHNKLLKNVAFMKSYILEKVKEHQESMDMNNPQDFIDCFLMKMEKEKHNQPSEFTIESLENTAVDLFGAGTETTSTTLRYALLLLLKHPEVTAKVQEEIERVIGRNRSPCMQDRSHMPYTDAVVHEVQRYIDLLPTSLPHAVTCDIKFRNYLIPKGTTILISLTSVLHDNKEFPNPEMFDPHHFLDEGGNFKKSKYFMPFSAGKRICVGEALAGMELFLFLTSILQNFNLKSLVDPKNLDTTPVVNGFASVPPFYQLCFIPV

For `COc1cc(OC)c(C2=NOC(C(=O)O)C2)cc1Cl` (configuration not stated), which EC50 [1] is on record?
The EC50 was > 100 µM (inactive).

And the EC50 [2]?
Its EC50 is > 100 µM (inactive).

Which IC50 [3] does the source give for `Cc1[nH]c2ccccc2c1C(=O)CSc1nc2ccccc2[nH]1` here?
The IC50 was 12.5 µM (inactive).

What about the IC50 (Orexin receptor type 2 [4]) of the same compound?
Its IC50 is > 50 µM (inactive).

And the IC50 (H9c2)?
Its IC50 is 32 µM (inactive).

And the CC50 [5]?
Its CC50 is > 50 µM (active).

And the IC50 [6]?
Its IC50 is 3.42 µM (active).

What about the IC50 (Orexin receptor type 2 [7]) of the same compound?
The IC50 was > 88.8 µM (inactive).

And the IC50 [8]?
Its IC50 is > 49.8 µM (inactive).

And the IC50 (CHO-K1)?
Its IC50 is > 66.2 µM (inactive).

Which AC50 (Candida albicans [9]) does the source give for `Oc1c2nc3ccc(F)cc3c-2nc2n1CCS2` here?
Its AC50 is 4.72 µM (active).

And the AC50 (NIH3T3)?
Its AC50 is 192 µM (active).

And the AC50 (Candida albicans [10])?
The AC50 was 37.3 µM (active).

For `CCOc1ccccc1/C=N/NC(=O)c1nnn(-c2nonc2N)c1CN1CCC(C)CC1`, which AC50 [11] is on record?
The AC50 was 39.2 nM (active).

And the AC50 [12]?
The AC50 was 65 µM (active).

What about the AC50 [13] of the same compound?
Its AC50 is < 16 nM (active).

With `COc1ccc(Oc2c(C(=O)O)cnn(Cc3cccc4ccccc34)c2=O)cc1` as the compound, how does the IC50 [14] read?
The IC50 was > 20 µM (inactive).

What about the IC50 [15] of the same compound?
The IC50 was > 20 µM (inactive).

Which CC50 [16] does the source give for `CN(C(=O)CSc1nc2ccccc2c(=O)[nH]1)C1CCCCC1` here?
Its CC50 is > 100 µM (active).

And the CC50 [17]?
Its CC50 is > 100 µM (active).

And the CC50 [18]?
The CC50 was > 97.4 µM (active).

What about the CC50 [19] of the same compound?
Its CC50 is > 100 µM (active).

What about the CC50 [20] of the same compound?
Its CC50 is > 100 µM (active).

What about the CC50 [21] of the same compound?
The CC50 was > 100 µM (active).

For `COc1ccc(-c2cc(=O)c3c(O)cc(O)cc3o2)cc1` [ACACETIN], which Ki [22] is on record?
Its Ki is 631 nM (active).

And the Ki [23]?
Its Ki is 1.26 µM (active).

What about the AC50 (Cytochrome P450 2C9) of the same compound?
The AC50 was 1.26 µM (inconclusive).
